{"source": "patent US6461997B1", "about": "“Triazole sulfones having herbicidal activity” (Monsanto Technology LLC, priority 1999, dated 2002)", "key": {"AMARE (redroot pigweed)": {"tested_on": "AMARE (redroot pigweed)", "assay": "Pre-plant incorporated (PPI) herbicidal activity, warm season", "type": "in vivo, Amaranthus retroflexus", "conditions": "for Percent inhibition AMARE: PPI application", "experimental": "(§1) In another set of tests, the pre-plant incorporated (PPI) activity of compounds of this invention was evaluated on the same species as for the pre-emergence tests described above. In the PPI tests the following procedure, designed to simulate PPI application, was used.\n(§2) A pre-prepared topsoil mixture (described above) was placed in a pot and compacted to a depth of 1.0 to 1.25 cm from the top of the pot. Seeds of each of several monocotyledonous and dicotyledonous annual plant species were placed on top of the soil. A sufficient quantity of soil to cover the seeds and level fill the pot was weighed into an open container. A known amount of the test compound was dissolved or suspended in an organic solvent and applied by spraying to this cover soil. The cover soil was thoroughly mixed to distribute the test compound throughout the cover soil, and was then applied as a cover layer over the seeds. Untreated soil was used as a cover layer for control pots. After treatment the plants were placed in a greenhouse where they received 0.64 cm of overhead irrigation. All subsequent watering consisted of a light overhead mist and/or subirrigation as needed for germination and growth. Tables 9 and 10 below relate to warm season plant species which were placed after pre-emergence treatment in a greenhouse with a 30/21° C. day/night temperature regime. Tables 11 and 12 below relates to cool season plant species placed after pre-emergence treatment in a greenhouse or growth chamber with an 18/13° C. day/night temperature regime. Only the compounds of Examples 1, 6, 8, 11, 13 and 15-20 were included in PPI tests.\n(§3) Approximately 14 days after planting and treating, the plants were observed and herbicidal efficacy recorded as percent inhibition by comparison with untreated plants."}, "POLCO (wild buckwheat) [1]": {"tested_on": "POLCO (wild buckwheat)", "assay": "Pre-emergence herbicidal activity, cool season", "type": "in vivo, Polygonum convolvulus", "conditions": "lowest tested rate with 80% or greater inhibition; rates 300, 100, 30, 10 g/ha; about 14 days", "procedure,_shortened": "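Pre-emergence soil-surface spray; rates 300/100/30/10 g/ha; acetone:water 50:50 diluent. Warm-season species (PANMI, DIGSA) grown at 30/21 °C, cool-season species (ALOMY, POLCO) at 18/13 °C. Inhibition scored ~14 d after treatment versus untreated controls → GR80.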"}, "POLCO (wild buckwheat) [2]": {"tested_on": "POLCO (wild buckwheat)", "assay": "Pre-plant incorporated (PPI) herbicidal activity, cool season", "type": "in vivo, Polygonum convolvulus", "conditions": "for Percent inhibition POLCO: weed, PPI application", "experimental": "as §1, §2, §3"}, "wheat (TRZAW)": {"tested_on": "wheat (TRZAW)", "assay": "Selectivity test, PPI, cool season crop", "type": "in vivo, Triticum aestivum", "conditions": "PPI application", "experimental": "as §2, §3\n(§4) Additional pre-emergence and PPI tests were conducted by the procedures described above, on warm and cool season weed species in the presence of crop species, to assess herbicidal selectivity. Crop species included in warm season tests were corn (Zea mays, ZEAMX), rice (Oryza sativa, ORYSA) and soybean (Glycine max, GLYMX). Crop species included in cool season tests were wheat (Triticum aestivum, TRZAW), barley (Hordeunm vulgare, HORVX) and oilseed rape (Brassica napus, BRSNS).\n(§5) Tables 15 and 16 relate to pre-emergence and PPI tests respectively on warm season species. Table 17 relates to pre-emergence tests on cool season species."}, "oilseed rape (BRSNS)": {"tested_on": "oilseed rape (BRSNS)", "assay": "Selectivity test, PPI, cool season crop", "type": "in vivo, Brassica napus", "conditions": "PPI application", "experimental": "as §2, §3, §4, §5"}, "ALOMY (blackgrass)": {"tested_on": "ALOMY (blackgrass)", "assay": "Pre-plant incorporated (PPI) herbicidal activity, cool season", "type": "in vivo, Alopecurus myosuroides", "conditions": "for Percent inhibition ALOMY: weed, PPI application", "experimental": "as §1, §2, §3"}, "SASKR (russian thistle)": {"tested_on": "SASKR (russian thistle)", "assay": "Pre-emergence herbicidal activity, cool season", "type": "in vivo, Salsola kali", "conditions": "lowest tested rate with 80% or greater inhibition; rates 300, 100, 30, 10 g/ha; about 14 days", "procedure,_shortened": "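GR80 values derive from percent inhibition relative to untreated plants, read roughly 14 days after sowing and pre-emergence soil-surface treatment (compound in 50:50 acetone/water; rates typically 10, 30, 100, 300 g/ha). Warm-season weeds grew at 30/21° C day/night, cool-season ones at 18/13° C; an asterisk marks activity without reaching 80% at the highest rate.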"}, "[3]": {"tested_on": "VERPE (creeping speedwell)", "assay": "Pre-plant incorporated (PPI) herbicidal activity, cool season", "type": "in vivo, Veronica persicaria", "conditions": "for Percent inhibition VERPE: weed, PPI application", "experimental": "as §1, §2, §3"}, "ECHCG (barnyardgrass)": {"tested_on": "ECHCG (barnyardgrass)", "assay": "Pre-plant incorporated (PPI) herbicidal activity, warm season", "type": "in vivo, Echinochloa crus-galli", "conditions": "for Percent inhibition ECHCG: PPI application", "experimental": "as §1, §2, §3"}, "XANST (cocklebur)": {"tested_on": "XANST (cocklebur)", "assay": "Pre-plant incorporated (PPI) herbicidal activity, warm season", "type": "in vivo, Xanthium strumarium", "conditions": "PPI application", "experimental": "as §1, §2, §3"}, "PANDI (fall panicum)": {"tested_on": "PANDI (fall panicum)", "assay": "Pre-plant incorporated (PPI) herbicidal activity, warm season", "type": "in vivo, Panicum dichotomiflorum", "conditions": "for Percent inhibition PANDI: PPI application", "experimental": "as §1, §2, §3"}, "[4]": {"conditions": "pre-plant incorporated, lowest tested rate with 80% or greater inhibition, about 14 days"}}}
{"smiles": "CCN(CC)C(=O)n1cnc(S(=O)(=O)C(F)(F)SCCOC)n1", "note": "[Example 13]", "values": [{"measurement": "Percent inhibition AMARE", "setting": "AMARE (redroot pigweed); 10 g/ha", "result": 0, "unit": "%"}, {"measurement": "Percent inhibition AMARE", "setting": "AMARE (redroot pigweed); 30 g/ha", "result": 90, "unit": "%"}, {"measurement": "Percent inhibition AMARE", "setting": "AMARE (redroot pigweed); 100 g/ha", "result": 70, "unit": "%"}, {"measurement": "Percent inhibition AMARE", "setting": "AMARE (redroot pigweed); 300 g/ha", "result": 100, "unit": "%"}, {"measurement": "Percent inhibition AMARE", "setting": "AMARE (redroot pigweed); 900 g/ha", "result": 100, "unit": "%"}, {"measurement": "PPI activity (GR80) AMARE", "setting": "AMARE (redroot pigweed); pre-plant incorporated, GR80 = lowest tested rate with 80% or greater inhibition, approx. 14 days after treating, 30/21° C.", "result": 100, "unit": "g/ha"}, {"measurement": "Pre-emergence activity GR80, POLCO", "setting": "POLCO (wild buckwheat) [1]", "result": "[empty]"}, {"measurement": "PPI activity GR80, POLCO", "setting": "POLCO (wild buckwheat) [2]; [4]", "result": "* (activity observed, at least at highest rate, but <80% inhibition)"}, {"measurement": "Percent inhibition POLCO", "setting": "POLCO (wild buckwheat) [2]; 10 g/ha", "result": 0, "unit": "%"}, {"measurement": "Percent inhibition POLCO", "setting": "POLCO (wild buckwheat) [2]; 30 g/ha", "result": 50, "unit": "%"}, {"measurement": "Percent inhibition POLCO", "setting": "POLCO (wild buckwheat) [2]; 100 g/ha", "result": 40, "unit": "%"}, {"measurement": "Percent inhibition POLCO", "setting": "POLCO (wild buckwheat) [2]; 300 g/ha", "result": 80, "unit": "%"}, {"measurement": "Percent inhibition POLCO", "setting": "POLCO (wild buckwheat) [2]; 900 g/ha", "result": 90, "unit": "%"}, {"measurement": "Percent inhibition TRZAW", "setting": "wheat (TRZAW); 10 g/ha", "result": 0, "unit": "%"}, {"measurement": "Percent inhibition TRZAW", "setting": "wheat (TRZAW); 30 g/ha", "result": 0, "unit": "%"}, {"measurement": "Percent inhibition TRZAW", "setting": "wheat (TRZAW); 100 g/ha", "result": 20, "unit": "%"}, {"measurement": "Percent inhibition TRZAW", "setting": "wheat (TRZAW); 300 g/ha", "result": 20, "unit": "%"}, {"measurement": "Percent inhibition TRZAW", "setting": "wheat (TRZAW); 900 g/ha", "result": 30, "unit": "%"}, {"measurement": "Percent inhibition BRSNS", "setting": "oilseed rape (BRSNS); 10 g/ha", "result": 0, "unit": "%"}, {"measurement": "Percent inhibition BRSNS", "setting": "oilseed rape (BRSNS); 30 g/ha", "result": 0, "unit": "%"}, {"measurement": "Percent inhibition BRSNS", "setting": "oilseed rape (BRSNS); 100 g/ha", "result": 0, "unit": "%"}, {"measurement": "Percent inhibition BRSNS", "setting": "oilseed rape (BRSNS); 300 g/ha", "result": 70, "unit": "%"}, {"measurement": "Percent inhibition BRSNS", "setting": "oilseed rape (BRSNS); 900 g/ha", "result": 30, "unit": "%"}, {"measurement": "PPI activity GR80, ALOMY", "setting": "ALOMY (blackgrass); [4]", "result": 100, "unit": "g/ha"}, {"measurement": "Percent inhibition ALOMY", "setting": "ALOMY (blackgrass); 10 g/ha", "result": 40, "unit": "%"}, {"measurement": "Percent inhibition ALOMY", "setting": "ALOMY (blackgrass); 30 g/ha", "result": 90, "unit": "%"}, {"measurement": "Percent inhibition ALOMY", "setting": "ALOMY (blackgrass); 100 g/ha", "result": 99, "unit": "%"}, {"measurement": "Percent inhibition ALOMY", "setting": "ALOMY (blackgrass); 300 g/ha", "result": 99, "unit": "%"}, {"measurement": "Percent inhibition ALOMY", "setting": "ALOMY (blackgrass); 900 g/ha", "result": 100, "unit": "%"}, {"measurement": "Pre-emergence activity GR80, SASKR", "setting": "SASKR (russian thistle)", "result": "[empty]"}, {"measurement": "PPI activity GR80, VERPE", "setting": "[3]; [4]", "result": 100, "unit": "g/ha"}, {"measurement": "Percent inhibition VERPE", "setting": "[3]; 10 g/ha", "result": 75, "unit": "%"}, {"measurement": "Percent inhibition VERPE", "setting": "[3]; 30 g/ha", "result": 100, "unit": "%"}, {"measurement": "Percent inhibition VERPE", "setting": "[3]; 100 g/ha", "result": 100, "unit": "%"}, {"measurement": "Percent inhibition VERPE", "setting": "[3]; 300 g/ha", "result": 100, "unit": "%"}, {"measurement": "Percent inhibition VERPE", "setting": "[3]; 900 g/ha", "result": 100, "unit": "%"}, {"measurement": "Percent inhibition ECHCG", "setting": "ECHCG (barnyardgrass); 10 g/ha", "result": 10, "unit": "%"}, {"measurement": "Percent inhibition ECHCG", "setting": "ECHCG (barnyardgrass); 30 g/ha", "result": 80, "unit": "%"}, {"measurement": "Percent inhibition ECHCG", "setting": "ECHCG (barnyardgrass); 100 g/ha", "result": 100, "unit": "%"}, {"measurement": "Percent inhibition ECHCG", "setting": "ECHCG (barnyardgrass); 300 g/ha", "result": 100, "unit": "%"}, {"measurement": "Percent inhibition ECHCG", "setting": "ECHCG (barnyardgrass); 900 g/ha", "result": 100, "unit": "%"}, {"measurement": "PPI activity GR80, ECHCG", "setting": "ECHCG (barnyardgrass); [4]", "result": 100, "unit": "g/ha"}, {"measurement": "Percent inhibition XANST", "setting": "XANST (cocklebur); 10 g/ha", "result": 0, "unit": "%"}, {"measurement": "Percent inhibition XANST", "setting": "XANST (cocklebur); 30 g/ha", "result": 0, "unit": "%"}, {"measurement": "Percent inhibition XANST", "setting": "XANST (cocklebur); 100 g/ha", "result": 0, "unit": "%"}, {"measurement": "Percent inhibition XANST", "setting": "XANST (cocklebur); 300 g/ha", "result": 0, "unit": "%"}, {"measurement": "Percent inhibition XANST", "setting": "XANST (cocklebur); 900 g/ha", "result": 30, "unit": "%"}, {"measurement": "Percent inhibition PANDI", "setting": "PANDI (fall panicum); 10 g/ha", "result": 40, "unit": "%"}, {"measurement": "Percent inhibition PANDI", "setting": "PANDI (fall panicum); 30 g/ha", "result": 100, "unit": "%"}, {"measurement": "Percent inhibition PANDI", "setting": "PANDI (fall panicum); 100 g/ha", "result": 90, "unit": "%"}, {"measurement": "Percent inhibition PANDI", "setting": "PANDI (fall panicum); 300 g/ha", "result": 100, "unit": "%"}, {"measurement": "Percent inhibition PANDI", "setting": "PANDI (fall panicum); 900 g/ha", "result": 100, "unit": "%"}, {"measurement": "PPI activity GR80, PANDI", "setting": "PANDI (fall panicum); [4]", "result": 30, "unit": "g/ha"}]}
